Reference: ChEMBL document CHEMBL3091352, “Synthesis and pharmacological evaluation of novel bisindolylalkanes analogues” (Bioorg Med Chem, 2013)

Species on record: Homo sapiens
Test: Inhibition of human DNA topoisomerase-2 at 100 uM after 30 mins by agarose gel electrophoresis

An inhibition of 90.3% was found for `COc1cc([C@@H]2c3cc4c(cc3[C@@H](O[C@@H]3O[C@@H]5CO[C@@H](C)O[C@H]5[C@H](O)[C@H]3O)[C@H]3COC(=O)[C@H]23)OCO4)cc(OC)c1O` in this work.
